Test results from article PMC2913121 (Nature chemistry, 2010).

Tests used:
SjGST [1] = target: T1, SjGST (Schistosoma japonicum, UniProt P08515); assay: CDNB conjugation assay; format: biochemical; conditions: aniline up to 20 mM
SjGST [2] = target: T1, SjGST; assay: SjGST-templated acylhydrazone DCL, amplification by HPLC; format: binding; conditions: DCL synthesis in the presence of a large excess of the inhibitor

T1 sequence (P08515 whole entry): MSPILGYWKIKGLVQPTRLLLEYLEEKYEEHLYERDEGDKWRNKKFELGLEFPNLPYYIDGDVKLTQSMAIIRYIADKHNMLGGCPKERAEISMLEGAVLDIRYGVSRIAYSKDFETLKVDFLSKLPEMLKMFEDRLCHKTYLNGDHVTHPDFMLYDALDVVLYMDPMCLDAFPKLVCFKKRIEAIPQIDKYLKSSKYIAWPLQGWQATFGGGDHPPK

Row | SMILES | SjGST GSH conjugation activity in the presence of the additive (SjGST [1]) | effect on DCL component amplification (SjGST [2])
1 | Nc1ccccc1 [aniline] | retained GSH conjugation activity | 
2 | C=C(CC)C(=O)c1ccc(OCC(=O)O)c(Cl)c1Cl [ethacrynic acid] |  | completely suppressed
